Legend:
[1] = molecular target: T1, HLA-A2.1 antigens on T2 cell surface (Homo sapiens, UniProt P04439, D140Y/D185E/D98H/E176V/E277Q/G131W/G231S/I119V/I121R/I166T/I218V/L300P/L318F/N151K/N90K/P208A/P217A/Q86G/Q94H/R138H/R169H/T345S); assay: T2 cell binding assay; assay type: cell-based; conditions: T2 cells, 10 μg/ml synthetic peptide, 20 hours at 26° C., flow cytometry
T1 construct: endogenous in cells; host or cells: T2 cells
From the text: The binding test of the peptide in the invention was subjected to a T2 cell binding assay to measure the binding affinity for HLA-A2.1 antigens on T2 cell surface. T2 cells lack genes coding for transporter proteins for antigenic peptides (TAP1/TAP2) and therefore is not able to translocate peptide antigens processed by cells into the endoplasmic reticulum (ER). […] Therefore, the synthetic peptide antigens were used directly, not through cell processing, for the binding test with HLA-A2.1 antigens on T2 cell surface.
T2 cells that had been incubated overnight at 26° C. in RPMI 1640 containing 5% fetal bovine serum (FBS) were mixed with 10 μg/ml of pre-prepared synthetic peptide for 20 hours at 26° C. in RPMI containing 5% FCS and 5 μg/ml human β 2-microglobulin (β 2 m). The cells were then washed twice, incubated at 37° C. for 2 hours. […] Then the cells were incubated with fluorescein isothiocyanate (FITC) labeled anti-human HLA-A2.1 antibodies (BD Biosciences Pharmingen) to stain HLA-A2.1. The stains were fixed with 1% paraformaldehyde, and analyzed by flow cytometry. Because the binding of synthetic peptides and HLA-A2.1 antigens would be presented on the surface of lymphocytes, which could be recognized and bound by anti-human HLA-A2.1 antibodies. Therefore the fluorescein indicated the binding of synthetic peptides.

[2] = test system: CD8+IFN-γ+ double-positive cells; assay: In vivo induction of CD8 T cells proliferation; set-up: species or system HLA-A2.1 transgenic C57BL/6 mice
Protocol: 4-6 week-old HLA-A2.1 transgenic C57BL/6 mice were immunized with 100 μl containing 100 μg of SEQ ID NO: 1 peptide in adjuvant at 0.2 μM of CpG phosphorethioate oligodeoxynucleotide 1826 (CpG ODN 1826) via intramuscular injection three times at one week intervals. Five days after the third immunization, the splenocytes of mice were recovered and the numbers of CD8^+IFN-γ^+ double-positive cells were measured using flow cytometry analyses.

[3] = test system: β-lymphocyte (HMy2.CIR, ATCC No.: CRL-1993) target cells; assay: Cytotoxicity assay (CTL activity); assay type: cell-based; conditions: splenocytes of immunized mice as effector cells
Protocol: The β-lymphocyte (HMy2.CIR, ATCC No.: CRL-1993) target cells were labeled with PKH-26 and carboxyfluorescein diacetate succinimidyl ester (CFSE). 4-6 week-old HLA-A2.1 transgenic C57BL/6 mice were immunized as described in Example 2 with 100 μl of the same dosage of SEQ ID NO: 1 peptide in adjuvant of CpG oligodeoxynucleotide via intramuscular injection three times at one week intervals. Five days after the third immunization, the splenocytes of mice were recovered as effector cells and incubated with the target cells […].
Target cells labeled with two dyes were cultivated in the absence of effector cells as the control group. When membrane damage occurs, the dye is almost instantaneously lost and the cells are no longer able to take up the charged dye.

Substance | fluorescence intensity (FITC anti-human HLA-A2.1 staining) [1] | number of CD8+IFN-γ+ double-positive cells ([2]; splenocytes five days after third immunization, 100 μg peptide with CpG ODN 1826, intramuscular, three times at one week intervals) [%] | increase of CD8+IFN-γ+ double-positive cells in comparison to the irrelevant stimulator ([2]; splenocytes of immunized mice vs control group) | cytolytic activity ([3]; ET ratio 10) [%] | cytolytic activity ([3]; ET ratio 150) [%]
SEQ ID NO: 1: synthetic 9-amino-acid peptide, 63th to 71th amino acid sequence of HPV-16 E5 protein (YIIFVYIPL; Human papillomavirus type 16) | around 22% | 0.32 | about 4 fold | 18 | 33
positive control: HLA-A2.1 binding peptide obtained from tyrosinase peptide 369-377, positive control [reference compound] | around 35% |  |  |  | 

— patent US20070218080A1, “Peptide antigen of human papillomavirus type 16 and application thereof” (Mackay Memorial Hospital, priority 2006, published 2007)
